Data as given in patent publication US20090233950A1, “QUINAZOLINE DERIVATIVES” (priority 2006, published 2009).

Experiments:
[1] = biological target: T1, PDGFRβ (Homo sapiens, UniProt P09619); assay: In vitro phospho-Tyr751 PDGFRβ ELISA assay (Test (b)), MG63 osteosarcoma cells stimulated with PDGFBB; assay type: cell-based; details: read-out: IC50 versus phospho-Tyr751 formation in PDGFRβ
T1 construct: endogenous in cells; host or cells: MG63 osteosarcoma cells (ATCC)
Experimental: (b) In Vitro phospho-Tyr751 PDGFRβ ELISA Assay
This assay uses a conventional ELISA method to determine the ability of test compounds to inhibit phosphorylation of tyrosine in PDGFRβ.
An MG63 osteosarcoma cell line [American Type Culture Collection (ATCC) CCL 1427] was routinely maintained at 37° C. with 7.5% CO2 in Dulbecco's modified Eagle's growth medium (DMEM; Sigma-Aldrich; Catalogue No. D6546) containing 10% foetal calf serum (FCS; Sigma-Aldrich; Catalogue No. F7524) and 2 mM L-glutamine (Invitrogen Ltd., Paisley, UK; Catalogue No. 25030-024).
For the assay, the cells were detached from the culture flask using a trypsin/ethylenediaminetetraacetic acid (EDTA) mixture (Invitrogen Ltd.; Catalogue No. 15400-054) and resuspended in a test medium comprising DMEM without phenol red (Sigma-Aldrich; Catalogue No. D5921) containing 1% charcoal-stripped foetal calf serum (FCS) (Sigma-Aldrich; Catalogue No. F7524, stripped by incubation with dextran-coated activated charcoal at 55° C. for 30 minutes with continuous stirring followed by removal of the charcoal by centrifugation and filter sterilisation) and 2 mM L-glutamine (Invitrogen Ltd., Catalogue No. 25030-024) to give 6×10^4 cells per ml. Aliquots (100 μl) were seeded into each of the wells of columns […] (excluding column 1) and rows B-G (excluding rows A and H) of a clear 96 well tissue culture plate (Corning Life Sciences, Koolhovenlaan, The Netherlands; Catalogue No. 3595) to give a density of about 6000 cells per well. Aliquots (100 μl) of culture media were placed in the outer wells to minimise edge effects. The cells were incubated overnight at 37° C. with 7.5% CO2 to allow the cells to adhere to the wells.
Test compounds were prepared as 10 mM stock solutions in DMSO and serially diluted as required with DMSO to give a range of concentrations. Aliquots (3 μl) of each compound concentration were added to test medium (300 μl) to create a second dilution range. Aliquots (16 μl) of each resultant compound concentration were added to the cells in each well. “Maximum” control cells received a dilution of DMSO plus test medium only. “Minimum” control cells received a reference PDGFR inhibitor (16 μl). The cells were incubated for 90 minutes at 37° C. with 7.5% CO2.
The resultant cells were stimulated with PDGFBB using the following procedure. A lyophilised powder of PDGFBB, (Sigma-Aldrich; Catalogue No. P4306) was mixed with sterile water to provide a stock solution of 10 μg/ml of PDGFBB. A dilution of this stock solution into test medium provided a 182 ng/ml PDGFBB solution. Aliquots thereof (44 μl) were added to compound treated cells and to the “Maximum” control cells. The “Minimum” control cells received medium only. The cells were incubated at 37° C. with 7.5% CO2 for 5 minutes. The solution from the wells was removed and the cells were lysed by the addition of 120 μl/well of RIPA buffer comprising 60 mM tris(hydroxymethyl)aminomethane hydrochloride (Tris-HCl), 150 mM sodium chloride, 1 mM EDTA, 1% v/v Igepal CA-630, 0.25% sodium deoxycholate, 1% v/v phosphatase inhibitor cocktail 1 P2850, 1% phosphatase inhibitor cocktail 2 P5726 and 0.5% v/v protease inhibitor cocktail P8340 (all chemicals and inhibitor cocktails were obtainable from the Sigma-Aldrich Company Ltd.). The resultant tissue culture plates were shaken for 5 minutes at ambient temperature to ensure full lysis and then frozen at −20° C. until required. […]

[2] = biological target: T2, KDR (VEGFR2) (Homo sapiens, UniProt P35968); assay: In vitro phospho-KDR ELISA assay (Test (c)), HUVECs stimulated with VEGF; assay type: cell-based; details: read-out: IC50 versus phospho-tyrosine formation in KDR
T2 construct: phosphorylation of KDR expressed in human umbilical vein endothelial cells (HUVECs); host or cells: HUVECs
T2 sequence (P35968 20-1356): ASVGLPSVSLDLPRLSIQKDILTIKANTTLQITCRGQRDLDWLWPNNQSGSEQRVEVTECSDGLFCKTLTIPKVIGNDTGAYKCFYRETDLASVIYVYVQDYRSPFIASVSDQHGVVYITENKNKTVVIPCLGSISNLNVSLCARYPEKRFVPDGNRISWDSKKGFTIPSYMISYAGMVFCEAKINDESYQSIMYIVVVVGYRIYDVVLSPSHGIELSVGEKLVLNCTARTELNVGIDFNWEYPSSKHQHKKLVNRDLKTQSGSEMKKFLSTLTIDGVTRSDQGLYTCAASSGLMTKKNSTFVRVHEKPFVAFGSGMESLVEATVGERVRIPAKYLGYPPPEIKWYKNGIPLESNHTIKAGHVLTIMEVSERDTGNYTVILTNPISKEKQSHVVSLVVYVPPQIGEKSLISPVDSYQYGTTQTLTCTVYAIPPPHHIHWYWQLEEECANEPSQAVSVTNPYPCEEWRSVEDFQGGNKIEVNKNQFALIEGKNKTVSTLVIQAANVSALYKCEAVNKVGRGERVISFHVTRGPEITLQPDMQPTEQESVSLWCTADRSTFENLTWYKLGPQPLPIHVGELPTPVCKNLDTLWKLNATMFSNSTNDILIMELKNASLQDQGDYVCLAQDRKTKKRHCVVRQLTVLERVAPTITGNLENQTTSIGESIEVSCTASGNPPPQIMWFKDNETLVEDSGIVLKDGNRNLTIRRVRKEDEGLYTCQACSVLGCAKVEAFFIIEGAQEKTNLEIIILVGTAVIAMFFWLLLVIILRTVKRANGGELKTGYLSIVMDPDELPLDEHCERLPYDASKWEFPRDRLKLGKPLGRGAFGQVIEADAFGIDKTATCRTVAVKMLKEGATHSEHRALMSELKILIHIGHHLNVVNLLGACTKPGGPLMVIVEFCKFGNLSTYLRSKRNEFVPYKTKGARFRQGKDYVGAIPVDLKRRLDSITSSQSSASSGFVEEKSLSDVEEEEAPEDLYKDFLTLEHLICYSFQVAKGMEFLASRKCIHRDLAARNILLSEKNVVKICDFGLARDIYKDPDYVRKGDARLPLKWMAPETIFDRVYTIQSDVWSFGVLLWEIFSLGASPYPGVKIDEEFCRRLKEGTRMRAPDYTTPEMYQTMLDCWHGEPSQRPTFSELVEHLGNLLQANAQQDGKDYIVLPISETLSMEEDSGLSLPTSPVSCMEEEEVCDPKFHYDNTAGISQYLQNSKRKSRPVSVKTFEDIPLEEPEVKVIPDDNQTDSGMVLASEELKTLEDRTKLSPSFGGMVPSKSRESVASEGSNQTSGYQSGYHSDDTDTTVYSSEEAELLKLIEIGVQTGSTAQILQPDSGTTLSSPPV
Experimental: (c) In Vitro phospho-KDR ELISA Assay
This assay uses a conventional ELISA method to determine the ability of test compounds to inhibit phosphorylation of tyrosine in KDR (VEGFR2).
Human umbilical vein endothelial cells (HUVECs; PromoCell) were routinely incubated at 37° C. with 7.5% CO2 in ‘growth medium’ comprising MCDB 131 (Gibco Catalogue No. 10372-019; 500 ml) containing L-glutamine (Sigma Catalogue No. G3126; 0.848 g), 1% Penicillin Streptomycin (Gibco Catalogue No. 15140-122) and Fetal Bovine Serum (PAA Laboratories Catalogue No. A15-043; 50 ml).
For the assay, the cells were detached from the culture flask using a trypsin/ethylenediaminetetraacetic acid (EDTA) mixture (Invitrogen Ltd.; Catalogue No. 15400-054) and resuspended in ‘test medium’ comprising MCDB 131 (500 ml) containing L-glutamine (0.848 g), 1% Penicillin Streptomycin and Fetal Bovine Serum (10 ml). Aliquots (1 ml) were seeded into each well of a 24 well tissue culture plate (Corning Life Sciences; Catalogue No. 3527) to give a density of approximately 3.5×10^4 cells per well. The cells were incubated overnight at 37° C. with 7.5% CO2 to allow adherence to the well surface. The following morning the assay medium was decanted and an aliquot (0.5 ml) of ‘serum free medium’ comprising MCDB 131 (500 ml) containing L-glutamine (0.848 g) and 1% Penicillin Streptomycin was added to each well. The plates were incubated at 37° C. for 2.5 hours.
Test compounds were prepared as 10 mM stock solutions in DMSO and serially diluted with DMSO as required. Aliquots (3 μl) of each concentration of test compound were diluted with ‘serum free medium’ (300 μl). Aliquots (50 μl) of each resultant compound concentration were added to the cells in each well. “Maximum” control cells received only a dilution of DMSO whereas the “minimum” controls received a reference KDR inhibitor to give a final concentration of 1 μM. The cells were incubated for 90 minutes at 37° C. with 7.5% CO2.
The resultant cells were stimulated with VEGF using the following procedure. A lyophilised powder of VEGF (Sigma-Aldrich; Catalogue No. V7259) was mixed with PBS containing 0.1% filter-sterilised BSA (0.1% BSA/PBS) to provide a stock solution of 10 μg/ml of VEGF. A dilution of this stock solution into ‘serum free medium’ provided a 1000 ng/ml VEGF solution. Aliquots thereof (50 μl) were added to all wells. The cells were incubated at 37° C. with 7.5% CO2 for 5 minutes. The solution from the wells was removed and the cells were lysed by the addition of 100 μl/well of RIPA buffer comprising 60 mM Tris-HCl, 150 mM sodium chloride, 1 mM EDTA, 1% v/v Igepal CA-630, 0.25% sodium deoxycholate, 1% v/v phosphatase inhibitor cocktail 1 P2850, 1% phosphatase inhibitor cocktail 2 P5726 and 0.5% v/v protease inhibitor cocktail P8340. […]

T1 sequence (P09619 33-1106): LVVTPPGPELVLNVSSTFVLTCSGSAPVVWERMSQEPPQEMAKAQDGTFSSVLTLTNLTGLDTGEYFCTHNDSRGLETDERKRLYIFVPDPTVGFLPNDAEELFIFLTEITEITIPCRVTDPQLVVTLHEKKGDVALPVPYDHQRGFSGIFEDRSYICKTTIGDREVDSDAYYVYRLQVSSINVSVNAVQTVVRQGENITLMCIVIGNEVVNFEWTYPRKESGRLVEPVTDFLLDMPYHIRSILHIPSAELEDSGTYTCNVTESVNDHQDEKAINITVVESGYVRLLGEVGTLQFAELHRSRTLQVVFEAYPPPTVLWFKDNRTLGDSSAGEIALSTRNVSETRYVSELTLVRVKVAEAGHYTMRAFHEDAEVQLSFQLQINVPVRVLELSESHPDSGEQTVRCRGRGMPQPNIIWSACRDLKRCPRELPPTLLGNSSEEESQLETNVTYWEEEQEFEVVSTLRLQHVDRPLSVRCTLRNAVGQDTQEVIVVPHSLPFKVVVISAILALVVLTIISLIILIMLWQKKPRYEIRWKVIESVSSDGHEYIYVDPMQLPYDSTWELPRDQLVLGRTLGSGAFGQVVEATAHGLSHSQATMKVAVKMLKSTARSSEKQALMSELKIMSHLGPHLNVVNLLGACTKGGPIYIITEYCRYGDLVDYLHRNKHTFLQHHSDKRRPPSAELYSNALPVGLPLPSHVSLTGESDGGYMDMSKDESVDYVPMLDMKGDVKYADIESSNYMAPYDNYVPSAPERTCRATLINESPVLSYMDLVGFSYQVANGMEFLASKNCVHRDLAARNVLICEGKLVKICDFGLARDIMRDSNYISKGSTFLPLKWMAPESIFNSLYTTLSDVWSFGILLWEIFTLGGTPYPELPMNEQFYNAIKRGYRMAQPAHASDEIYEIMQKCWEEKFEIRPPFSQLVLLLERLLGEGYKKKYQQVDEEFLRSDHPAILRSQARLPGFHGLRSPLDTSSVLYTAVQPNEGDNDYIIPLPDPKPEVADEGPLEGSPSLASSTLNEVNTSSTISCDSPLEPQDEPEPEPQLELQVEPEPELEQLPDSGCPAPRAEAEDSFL

IC50 [1] [nM]	IC50 [2] [nM]	SMILES
~5	~2	COc1cc2ncnc(Oc3ccc(CC(=O)Nc4nc(C)c(C)s4)nc3)c2cc1OC [Example 1, N-(4,5-dimethylthiazol-2-yl)-2-[5-(6,7-dimethoxyquinazolin-4-yloxy)pyridin-2-yl]acetamide]
~10	> 3000	CCn1cc(NC(=O)Cc2ncc(Oc3ncnc4cc(OC)c(OC)cc34)cc2OC)cn1 [Example 7, N-(1-ethyl-1H-pyrazol-4-yl)-2-[5-(6,7-dimethoxyquinazolin-4-yloxy)-3-methoxypyridin-2-yl]acetamide]
~5	> 5000	COc1cc2ncnc(Oc3cnc(CC(=O)Nc4cnn(C(C)C)c4)c(OC)c3)c2cc1OC [Example 8, N-(1-isopropyl-1H-pyrazol-4-yl)-2-[5-(6,7-dimethoxyquinazolin-4-yloxy)-3-methoxypyridin-2-yl]acetamide]
~25		CCn1cc(NC(=O)Cc2ccc(Oc3ncnc4cc(OC)c(OC)cc34)cn2)cn1 [N-(1-ethyl-1H-pyrazol-4-yl)-2-[5-(6,7-dimethoxyquinazolin-4-yloxy)pyridin-2-yl]acetamide]
~25	~300	COc1cc2ncnc(Oc3ccc(CC(=O)Nc4cc(C)on4)nc3)c2cc1OC [N-(5-methylisoxazol-3-yl)-2-[5-(6,7-dimethoxyquinazolin-4-yloxy)pyridin-2-yl]acetamide]
